Laboratory results: ChEMBL document CHEMBL4000244, “Probing A-form DNA: A fluorescent aminosugar probe and dual recognition by anthraquinone-neomycin conjugates” (Bioorg Med Chem, 2017)

Columns and labels:
[1] = Binding affinity to 5'-GCCCCCCG-3' DNA hairpin assessed as change in fluorescence intensity at 1 uM after 45 mins by fluorescence quenching analysis relative to control
[2] = Binding affinity to 5'-CGCCGGCC-3' DNA hairpin assessed as change in fluorescence intensity at 1 uM after 45 mins by fluorescence quenching analysis relative to control
[3] = Binding affinity to 5'-CCGGGGGC-3' DNA hairpin assessed as change in fluorescence intensity at 1 uM after 45 mins by fluorescence quenching analysis relative to control
[4] = Binding affinity to 5'-GCGGGGCG-3' DNA hairpin assessed as change in fluorescence intensity at 1 uM after 45 mins by fluorescence quenching analysis relative to control
[5] = Binding affinity to 5'-GCGCGGGG-3' DNA hairpin assessed as change in fluorescence intensity at 1 uM after 45 mins by fluorescence quenching analysis relative to control
[6] = Binding affinity to 5'-GGCCCCGC-3' DNA hairpin assessed as change in fluorescence intensity at 1 uM after 45 mins by fluorescence quenching analysis relative to control
[7] = Binding affinity to 5'-CCCCCCGG-3' DNA hairpin assessed as change in fluorescence intensity at 1 uM after 45 mins by fluorescence quenching analysis relative to control
[8] = Binding affinity to 5'-GCGCGGCG-3' DNA hairpin assessed as change in fluorescence intensity at 1 uM after 45 mins by fluorescence quenching analysis relative to control
[9] = Binding affinity to 5'-CGGCGGGC-3' DNA hairpin assessed as change in fluorescence intensity at 1 uM after 45 mins by fluorescence quenching analysis relative to control
[10] = Binding affinity to 5'-CGGCCCGC-3' DNA hairpin assessed as change in fluorescence intensity at 1 uM after 45 mins by fluorescence quenching analysis relative to control
[11] = Binding affinity to 5'-GCCCCCCC-3' DNA hairpin assessed as change in fluorescence intensity at 1 uM after 45 mins by fluorescence quenching analysis relative to control
[12] = Binding affinity to 5'-CCGGCGCC-3' DNA hairpin assessed as change in fluorescence intensity at 1 uM after 45 mins by fluorescence quenching analysis relative to control
[13] = Binding affinity to 5'-GGGCGCGC-3' DNA hairpin assessed as change in fluorescence intensity at 1 uM after 45 mins by fluorescence quenching analysis relative to control
[14] = Binding affinity to 5'-CGCCCGCC-3' DNA hairpin assessed as change in fluorescence intensity at 1 uM after 45 mins by fluorescence quenching analysis relative to control
[15] = Binding affinity to 5'-GCGCCCGG-3' DNA hairpin assessed as change in fluorescence intensity at 1 uM after 45 mins by fluorescence quenching analysis relative to control
[16] = Binding affinity to 5'-GGCGCGGG-3' DNA hairpin assessed as change in fluorescence intensity at 1 uM after 45 mins by fluorescence quenching analysis relative to control
[17] = Binding affinity to 5'-CGGGCGGC-3' DNA hairpin assessed as change in fluorescence intensity at 1 uM after 45 mins by fluorescence quenching analysis relative to control
[18] = Binding affinity to 5'-GGGCGGCG-3' DNA hairpin assessed as change in fluorescence intensity at 1 uM after 45 mins by fluorescence quenching analysis relative to control
[19] = Binding affinity to 5'-CCGGCGGG-3' DNA hairpin assessed as change in fluorescence intensity at 1 uM after 45 mins by fluorescence quenching analysis relative to control
[20] = Binding affinity to 5'-CCCCGGGG-3' DNA hairpin assessed as change in fluorescence intensity at 1 uM after 45 mins by fluorescence quenching analysis relative to control
[21] = Binding affinity to 5'-CGCCCGGG-3' DNA hairpin assessed as change in fluorescence intensity at 1 uM after 45 mins by fluorescence quenching analysis relative to control
[22] = Binding affinity to 5'-CCGGGCGC-3' DNA hairpin assessed as change in fluorescence intensity at 1 uM after 45 mins by fluorescence quenching analysis relative to control
[23] = Binding affinity to 5'-GGCCCGGG-3' DNA hairpin assessed as change in fluorescence intensity at 1 uM after 45 mins by fluorescence quenching analysis relative to control
[24] = Binding affinity to 5'-GGCGGCCG-3' DNA hairpin assessed as change in fluorescence intensity at 1 uM after 45 mins by fluorescence quenching analysis relative to control
[25] = Binding affinity to 5'-CGGGGGGG-3' DNA hairpin assessed as change in fluorescence intensity at 1 uM after 45 mins by fluorescence quenching analysis relative to control
[26] = Binding affinity to 5'-GCGGCGGG-3' DNA hairpin assessed as change in fluorescence intensity at 1 uM after 45 mins by fluorescence quenching analysis relative to control
[27] = Binding affinity to 5'-GCGCCCCG-3' DNA hairpin assessed as change in fluorescence intensity at 1 uM after 45 mins by fluorescence quenching analysis relative to control
[28] = Binding affinity to 5'-CGGCGCCC-3' DNA hairpin assessed as change in fluorescence intensity at 1 uM after 45 mins by fluorescence quenching analysis relative to control
[29] = Binding affinity to 5'-GGGCCGCC-3' DNA hairpin assessed as change in fluorescence intensity at 1 uM after 45 mins by fluorescence quenching analysis relative to control
[30] = Binding affinity to 5'-CGCGGCGG-3' DNA hairpin assessed as change in fluorescence intensity at 1 uM after 45 mins by fluorescence quenching analysis relative to control
[31] = Binding affinity to 5'-CCGCCGGG-3' DNA hairpin assessed as change in fluorescence intensity at 1 uM after 45 mins by fluorescence quenching analysis relative to control
[32] = Binding affinity to 5'-GCGCGCCC-3' DNA hairpin assessed as change in fluorescence intensity at 1 uM after 45 mins by fluorescence quenching analysis relative to control
[33] = Binding affinity to 5'-GGGCGGGG-3' DNA hairpin assessed as change in fluorescence intensity at 1 uM after 45 mins by fluorescence quenching analysis relative to control
[34] = Binding affinity to 5'-GGCGGGCC-3' DNA hairpin assessed as change in fluorescence intensity at 1 uM after 45 mins by fluorescence quenching analysis relative to control
[35] = Binding affinity to 5'-GCGGGGCC-3' DNA hairpin assessed as change in fluorescence intensity at 1 uM after 45 mins by fluorescence quenching analysis relative to control
[36] = Binding affinity to 5'-GCGCGCCG-3' DNA hairpin assessed as change in fluorescence intensity at 1 uM after 45 mins by fluorescence quenching analysis relative to control

Activity [1]: 19.8%
Activity [2]: 48.6%
Activity [3]: 38.4%
Activity [4]: 45.2%
Activity [5]: 43.1%
Activity [6]: 21.3%
Activity [7]: 30.9%
Activity [8]: 49.1%
Activity [9]: 43.1%
Activity [10]: 39.9%
Activity [11]: 10.1%
Activity [12]: 48.9%
Activity [13]: 58.3%
Activity [14]: 42%
Activity [15]: 49.3%
Activity [16]: 46.2%
Activity [17]: 45.1%
Activity [18]: 52.7%
Activity [19]: 49.1%
Activity [20]: 32.7%
Activity [21]: 47.2%
Activity [22]: 43.6%
Activity [23]: 26.7%
Activity [24]: 56.4%
Activity [25]: 35.9%
Activity [26]: 43.5%
Activity [27]: 44.1%
Activity [28]: 45.2%
Activity [29]: 40%
Activity [30]: 52%
Activity [31]: 43.7%
Activity [32]: 49.8%
Activity [33]: 45.3%
Activity [34]: 53.2%
Activity [35]: 40.4%
Activity [36]: 44.2%
SMILES: NCC1O[C@H](O[C@H]2[C@@H](O)[C@H](O[C@@H]3[C@@H](O)[C@H](N)C[C@H](N)[C@H]3O[C@H]3O[C@H](CN)[C@@H](O)[C@H](O)[C@H]3N)O[C@@H]2CSCCNC(=O)CCSCC(=O)Nc2ccc(-c3c4ccc(=O)cc-4oc4cc(O)ccc34)c(C(=O)O)c2)[C@H](N)[C@@H](O)[C@@H]1O (stereo partly specified)
